# Experimental data taken from US11203575B2, “Methhod for producing a crystalline form of 5-amino-2,3-dihydrophthalazine-1,4-dione” (METRIOPHARM AG, priority 2016, dated 2021).
# Text: FIG. 5: TG-DSC diagram of crystalline form of 5-amino-2,3-dihydro-1,4-phthalazinedione produced by the method according to the invention. Upper trace: Mass loss determined by TG. Lower trace: Heat flow determined by DSC
smiles,measurement,setting,value
"Nc1cccc2c(=O)[nH][nH]c(=O)c12 [crystalline form of luminol, 5-amino-2,3-dihydrophthalazine-1,4-dione]",solid state transformation to other forms,"TG-DSC, until thermal degradation of the crystalline compound sets in (FIG. 5)",no solid state transformation to other forms is observed
same,thermal stability up to,"simultaneous TG and DSC, solid crystalline form (FIG. 5)",up to 328±1 °C
